Experimental data taken from patent publication US12264146B2, “Rho kinase inhibitor, method for preparing same and uses thereof” (BEIJING INCREASE INNOVATIVE DRUG CO., LTD., priority 2018, dated 2025).

How the values were obtained:
[1] = system: endothelial nitric oxide synthase (eNOS); assay: Endothelial nitric oxide synthase (eNOS) in EA.Hy926 endothelial cells, detection kit; type: cell-based; settings: 24 h; for expression of endothelial nitric oxide synthase in endothelial cells: Detection result of test compound at low dose (0.4 μM) / expression of endothelial nitric oxide synthase in endothelial cells: Detection result of test compound at medium dose (2 μM) / expression of endothelial nitric oxide synthase in endothelial cells: Detection result of test compound at high dose (10 μM): EA.Hy926 cell supernatant
Protocol: Commercially available cytokine kits were used to detect the effects of the compounds of the present application on vascular endothelium-derived contracting factor endothelin, vascular endothelium-derived relaxing factor endothelial nitric oxide synthase, nitric oxide, and prostacyclin factor. The detection was performed according to the kit instructions. When testing the effect of the compound of the present application on cytokines, a normal control group, a fasudil hydrochloride group, and high-, medium- and low-dose groups of the compounds of the present application were set up for testing. The fasudil hydrochloride used in this test example was purchased from Beijing Sihuan Pharmaceutical Co., Ltd., with the SFDA approval number of H20173349. The EA.Hy926 cells used in this test example were purchased from Suzhou Beina Chuanglian Biotechnology Co., Ltd.
Detection conditions: EA.Hy926 cells were inoculated at 1×10^5 […] in a 96-well plate, 100 μL per well, and cultured adherently for 24 hours, then the test compound prepared with DMEM medium was added, the normal control group was added with an equal volume of DMEM medium, then the cells were cultured for 24 hours at 37° C., and then the cell supernatant was taken and placed in an EP tube, and centrifuged at 3000 r/min and 4° C. for 15 minutes, the resulting supernatant was transferred to a new EP tube, diluted 3 times, and detected according to the instruction of eNOs detection kit (purchased from Wuhan Elabscience Biotechnology Co., Ltd., Cat. No. AK0017OCT12013), and the detection results were shown in Table 4.

[2] = Toxicity test on endothelial cells EA.hy926, CCK-8 cell viability; type: cell-based; settings: human, 1000~0.32 μmol/L, 5-fold dilution, read-out: IC50 of Test compound (cytotoxicity on EA.hy926 cells)
Protocol: In this test example, 31 groups, i.e., Groups 1 to 31, were set, in which Group 1 was a blank control group, Group 2 was a normal control group, Group 3 was a positive control group, and Groups 4 to 31 were test groups of the compounds of the present application. The specific test operation comprised: 100 μL of endothelial cells EA.hy926 (purchased from Suzhou Beina Chuanglian Biotechnology Co., Ltd.) with a density of 5×10^4 was added to each well of a 96-well plate, and transferred to an incubator at 37° C. with 5% CO2 and saturated humidity conditions and cultured for 24 hours, 100 μL of 2× the test compound solution prepared and diluted with DMEM medium containing 10% fetal bovine serum was added, in which the test compound added in the positive control group was Fasudil hydrochloride (purchased from Beijing Sihuan Pharmaceutical Co., Ltd., SFDA approval number H20173349) solution with different concentrations, an equal volume of DMEM medium was added in the blank control group, an equal volume of PBS buffer was added in the normal control group, and a duplicate well was set for each concentration point. After adding the test compound, the culture was continued in the incubator for 24 hours, then 20 μL of CCK-8 detection solution (purchased from Beijing Solarbio Science & Technology Co., Ltd., Cat. No. CA1210) was added to each well, interacted at 37° C. for 2.5 hours, shaken and mixed well, and then the absorbance value at 450 nm was detected.
OD values were detected, and the cell viability values of test groups of different concentrations were calculated according to the cell viability calculation formula as follows: Cell viability=(Atest group−Ablank control)/(Anormal control−Ablank control)*100%
wherein A represented absorbance value at 450 nm.
Prism6.0 was used to obtain the inhibitor concentration-viability curve and to calculate the IC50 of the test compound, the correlation coefficient R^2>0.99; the inhibitor concentration-viability curves of Fasudil hydrochloride, R-YK1601, R-YK1603, R-YK1606, R-YK1607, R-YK1610 were shown in FIGS. 1 to 6, in which the abscissa was the logarithm on base 10 of the concentration of the test compound, and the ordinate was the cell activity (i.e., cell viability).

Row | Structure (SMILES) | expression of endothelial nitric oxide synthase in endothelial cells: Detection result of test compound at low dose (0.4 μM) [1] | expression of endothelial nitric oxide synthase in endothelial cells: Detection result of test compound at medium dose (2 μM) [1] | expression of endothelial nitric oxide synthase in endothelial cells: Detection result of test compound at high dose (10 μM) [1] | IC50 at 24 h [2] | effect on the expression of nitric oxide synthase (in words) ([1]; high dose)
1 | C[C@@H]1CNCCCN1S(=O)(=O)c1cccc2c(O)ncc(C3CC3)c12 [Compound R-YK1600-1, (R)-4-cyclopropyl-5-((2-methyl-1,4-diazacycloheptan-1-yl)sulfonyl)isoquinolin-1-ol] | 2528.44 ± 267.48 pg/mL | 2485.91 ± 287.57 pg/mL | 2345.81 ± 213.65 pg/mL | 188 µM | 
2 | COc1ncc(C2CC2)c2c(S(=O)(=O)N3CCCNC[C@H]3C)cccc12 [Compound R-YK1600-2, (R)-4-cyclopropyl-1-methoxy-5-((2-methyl-1,4-diazacycloheptan-1-yl)sulfonyl)isoquinoline] | 2428.32 ± 287.58 pg/mL | 2384.92 ± 317.27 pg/mL | 2245.86 ± 224.65 pg/mL | 145 µM | 
3 | C[C@@H]1CNCCCN1S(=O)(=O)c1cccc2c(O)nccc12 [Compound R-YK1601, (R)-5-((2-methyl-1,4-diazacycloheptan-1-yl)sulfonyl)isoquinolin-1-ol] | 2526.66 ± 220.56 pg/mL | 2339.70 ± 249.84 pg/mL | 2598.44 ± 365.33 pg/mL | 686 µM | slight promotion effect
4 | COc1nccc2c(S(=O)(=O)N3CCCNC[C@H]3C)cccc12 [Compound R-YK1602, (R)-1-methoxy-5-((2-methyl-1,4-diazacycloheptan-1-yl)sulfonyl)isoquinoline] | 2607.85 ± 384.81 pg/mL | 2314.00 ± 393.66 pg/mL | 2262.45 ± 134.54 pg/mL | 433 µM | 
5 | C[C@@H]1CNCCCN1S(=O)(=O)c1cccc2cnccc12 [Compound R-YK1603, (R)-5-((2-methyl-1,4-diazacycloheptan-1-yl)sulfonyl)isoquinoline] | 2928.44 ± 257.48 pg/mL | 2385.91 ± 387.57 pg/mL | 2245.94 ± 213.65 pg/mL | 256 µM | 
6 | C[C@@H]1CNCCCN1S(=O)(=O)c1cccc2c(O)ncc(F)c12 [Compound R-YK1604, (R)-4-fluoro-5-((2-methyl-1,4-diazacycloheptan-1-yl)sulfonyl)isoquinolin-1-ol] | 2932.05 ± 435.87 pg/mL | 2397.93 ± 180.08 pg/mL | 2229.68 ± 63.98 pg/mL | 210 µM | 
7 | COc1ncc(F)c2c(S(=O)(=O)N3CCCNC[C@H]3C)cccc12 [Compound R-YK1605, (R)-4-fluoro-1-methoxy-5-((2-methyl-1,4-diazacycloheptan-1-yl)sulfonyl)isoquinoline] | 2752.53 ± 779.12 pg/mL | 2261.58 ± 253.77 pg/mL | 2105.70 ± 87.14 pg/mL | 184 µM | 
